{"source": "PubChem BioAssay AID2060597", "about": "(Global Health Medicines R&D, GSK, 2025)", "note": "Calls of active or inactive are those of the source.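 Rule for the calls: active = blocking male or female gamete formation with potency of about 10 µM or stronger; inactive = the rest.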"}
{"system": "P. falciparum 3D7A gametocytes, male exflagellation, 48 h", "assay": "transmission-blocking activity on Pf gametocytes – dual gamete formation, strain 3D7A, dose response (AID 2060597)", "settings": "not given", "units": {"IC50": "µM"}}
{"smiles": "COc1ccc(C(=O)N2CCN(c3ccc(-n4cccn4)nn3)CC2)cc1OC", "IC50": "> 10"}
{"smiles": "O=C(/C=C/c1n[nH]c2ccccc12)N1CCN(c2cnccn2)CC1", "IC50": "> 5.01"}
{"smiles": "Cn1cccc1C1CCCN1CC(=O)Nc1ccc(S(=O)(=O)N2CCOCC2)cc1", "note": "(stereo not drawn)", "IC50": "> 10"}
{"smiles": "O=C(CCCc1c[nH]c2ccccc12)N1CCN(c2ccc(N3CCOCC3)nn2)CC1", "IC50": "> 10"}
{"smiles": "Cc1ccc2nc(CCNC(=O)CCS(=O)(=O)c3ccc4c(c3)CC(=O)N4C)[nH]c2c1", "IC50": "> 10"}
{"smiles": "CCN(CC)c1ccc(C(=O)COc2ccc3c(c2)CCNCC3)cc1", "IC50": "> 10"}
{"smiles": "O=C(CCN=C1NS(=O)(=O)c2ccccc21)Nc1ccc(S(=O)(=O)N2CCCC2)cc1", "IC50": "> 10"}
{"smiles": "O=C(CCn1nnc2cc(S(=O)(=O)N3CCCC3)ccc21)N1CCN(c2ccccn2)CC1", "IC50": "> 10"}
{"smiles": "O=C(CCCc1ncc(-c2ccccc2)o1)N1CCOC2CCCC21", "note": "(stereo not drawn)", "IC50": "> 10"}
{"smiles": "CN(C(=O)C[C@@H]1CCN(C(=O)C2CC2)C1)c1ccc(-c2ccc(C#N)cc2)cc1", "IC50": "> 10"}
{"smiles": "COc1ccc(N2CCN(C(=O)c3csc(Nc4ccccc4S(C)(=O)=O)n3)CC2)nc1", "IC50": "> 10"}
{"smiles": "O=C1CCCN1c1ccc(S(=O)(=O)N2CCN(S(=O)(=O)c3ccccc3)CC2)cc1", "IC50": "> 10"}
{"smiles": "O=C(COc1ccc(Br)cc1F)N1CCN(c2cnccn2)CC1", "IC50": "> 10"}
{"smiles": "Cc1nn(C2CCS(=O)(=O)C2)c(C)c1CN(C)C(=O)CN1C(=O)NC2(CCCCC2C)C1=O", "note": "(stereo not drawn)", "IC50": "> 10"}
{"smiles": "O=C(c1cc2ccccc2[nH]1)N1CCC2(CC(Nc3ccncn3)C2)C1", "note": "(stereo not drawn)", "IC50": "> 10"}
{"smiles": "Cc1cc(-c2cnc(N3CCn4c(nnc4C4CC4)C3)nc2-c2ccncc2)on1", "IC50": "> 10"}
{"smiles": "N#Cc1cccc(NC(=O)CNc2ccccc2C(=O)NC2CC2)c1", "IC50": "> 10"}
{"smiles": "CCCOc1cncc(S(=O)(=O)c2ccc3c(c2)CCN(C2CCC2)CC3)c1", "IC50": "> 10"}
{"smiles": "CCN(C(=O)C=Cc1ccc(S(=O)(=O)N2CCc3ccccc32)cc1)C1CCS(=O)(=O)C1", "note": "(stereo not drawn)", "IC50": "> 10"}
{"smiles": "Cc1cc(Cl)ccc1OCC(=O)N1CCc2c(cnc(C)c2CNC(=O)c2ccc(=O)[nH]n2)C1", "IC50": "> 10"}
{"smiles": "Cc1cccc(-c2nn(Cc3ccc(C(=O)NCCCO)cc3)c(=O)cc2N2CCCC(CO)C2)c1", "note": "(stereo not drawn)", "IC50": "> 10"}
{"smiles": "COc1ccc2oc(C(=O)NC3CCC(Oc4ncccn4)CC3)cc2c1", "note": "(stereo not drawn)", "IC50": "> 10"}
{"smiles": "O=C(Nc1cccnc1)C1CCN(c2ccc(-c3ccco3)nn2)CC1", "IC50": "> 10"}
{"smiles": "O=C(Nc1nnc(-c2ccccc2)s1)N1CCCN(c2ncccn2)CC1", "IC50": "> 10"}
{"smiles": "COc1ccc(NC(=O)c2ccc3c(=O)n(Cc4ccccn4)cnc3c2)cc1N1CCN(C)CC1", "IC50": "> 10"}
{"smiles": "NC(=O)CC1CCN(C(=O)c2sc3sccc3c2Cl)CC1", "IC50": "> 10"}
{"smiles": "N#Cc1c(N)n[nH]c1CCCNC(=O)c1ccc(Cl)c(S(=O)(=O)N2CCCC2)c1", "IC50": "> 10"}
{"smiles": "O=C(Nc1ccc(N2CCCC2)nc1)N1CCN(c2cnccn2)CC1", "IC50": "> 10"}
{"smiles": "CC(C)Oc1ccc(-c2nnc(Oc3cccc4c3CCN(CCC(N)=O)CC4)s2)cc1C#N", "IC50": "> 10"}
{"smiles": "COc1ccc(-c2ccc(CNC(=O)c3cc(C(=O)NC(C)C)ccc3Cl)cc2)cn1", "IC50": "> 10"}
{"smiles": "O=C1CSc2ccc(C(=O)Nc3ccc(-c4nnc5n4CCCCC5)cc3)cc2N1", "IC50": "> 10"}
{"smiles": "O=C(/C=C/c1n[nH]c2ccccc12)Nc1ccc(C(=O)NCCN2CCOCC2)cc1", "IC50": "> 10"}
{"system": "not listed separately", "assay": "transmission-blocking activity on Pf gametocytes – dual gamete formation, strain 3D7A, dose response (AID 2060597)", "settings": "P. falciparum 3D7A gametocytes, male exflagellation, 48 h"}
{"smiles": "O=C(NCCCN1CCc2ccccc21)c1ccc2c(=O)n(Cc3ccccn3)cnc2c1", "outcome": "active"}
